Reference: patent US4789661A, “De-(acetylglucosaminyl)-di(dehydro)-deoxy teicoplanin derivatives” (Gruppo Lepetit S.p.A., priority 1985, dated 1988)
≈ marks a conversion by molar mass, not a printed value.

Columns and labels:
[1] = test system: experimental infection in mice; experiment: Experimental infection in mice (V. Arioli et al.); assay type: in vivo
From the text: In addition to their antibacterial activity in vitro, the compounds of the invention show also antibacterial activity in in vivo experimetns.

S. aureus ATCC 6538 = experiment: In vitro antimicrobial activity (MIC), standard dilution test; assay type: cell-based; conditions: inoculum about 10^4 CFU/ml, 18-24 h at 37° C.
Protocol: (§1) Isosensitest broth (Oxoid) and Todd-Hewitt broth (Difco) are used for growing staphylococci and streptococci, respectively. Broth cultures are diluted so that the final inoculum is about 10^4 colony forming units/ml (CFU/ml).

S. pyogenes C 203 = experiment: as above; assay type: cell-based; conditions: inoculum about 10^4 CFU/ml, 18-24 h at 37° C.
Protocol: as §1

S. faecalis ATCC 7080 = experiment: as above; assay type: cell-based; conditions: inoculum about 10^4 CFU/ml, 18-24 h at 37° C.
Protocol: as §1

P. vulgaris ATCC 881 = experiment: as above; assay type: cell-based; conditions: inoculum about 10^4 CFU/ml, 18-24 h at 37° C.
Protocol: as §1

S. pneumoniae UC 41 = experiment: as above; assay type: cell-based; conditions: inoculum about 10^4 CFU/ml, 18-24 h at 37° C.
Protocol: as §1

S. aureus TOUR = experiment: as above; assay type: cell-based; conditions: inoculum about 10^4 CFU/ml, 18-24 h at 37° C.
Protocol: as §1

[2] = test system: S. epidermidis ATCC 12228; experiment: as above; assay type: cell-based; conditions: inoculum about 10^4 CFU/ml, 18-24 h at 37° C.
Protocol: as §1

E. Coli SKF 12140 = experiment: as above; assay type: cell-based; conditions: inoculum about 10^4 CFU/ml, 18-24 h at 37° C.
Protocol: as §1

[3] = Acid-base titration (pKMCS) in 2-methoxyethanol/water 4:1; assay type: physicochemical; conditions: potentiometric; 2-methoxyethanol (Methyl Cellosolve)/water 4:1 (v/v)
Protocol: Acid-base titration (pKMCS) were carried out in 2-methoxyethanol (Methyl Cellosolve®) water 4:1 (v/v) solution, with 0.01 NaOH after addition of suitable amounts of 0.01N hcl. The equivalent weights (EW) given are corrected for the solvent content and the inorganic residue.

[4] = test system: S. haemoliticus L 1520 (methicillin-resistant); experiment: MIC in microtiter against coagulase-negative staphylococci, clinical isolates; assay type: cell-based; conditions: S. haemoliticus L 1520, methicillin-resistant clinical isolate, Iso-sensitest broth, approximately 10^4 CFU/ml
Protocol: (§2) In a representative experiment, compound III i.e. (35,52-di-dehydro-34-deoxy-teicoplanin aglycon) was tested against some clinically isolated coagulasenegative staphylococi. The results of the test, in comparison with teicoplanin, are reported below in Table VII, The MIC were determined in microtiter using Iso-sensitest broth (Oxoid Co.) and approximately 10^4 CFU/ml as the inoculum.

S. epidermidis L 1378 = experiment: as above; assay type: cell-based; conditions: S. epidermidis L 1378 clinical isolate, Iso-sensitest broth, approximately 10^4 CFU/ml
Protocol: as §2

[5] = test system: S. simulans L 785 (methicillin-resistant); experiment: as above; assay type: cell-based; conditions: S. simulans L 785, methicillin-resistant clinical isolate, Iso-sensitest broth, approximately 10^4 CFU/ml
Protocol: as §2

[6] = test system: S. Simulans L 1142 (methicillin-resistant); experiment: as above; assay type: cell-based; conditions: S. Simulans L 1142, methicillin-resistant clinical isolate, Iso-sensitest broth, approximately 10^4 CFU/ml
Protocol: as §2

S. hominis L 1070 = experiment: as above; assay type: cell-based; conditions: S. hominis L 1070 clinical isolate, Iso-sensitest broth, approximately 10^4 CFU/ml
Protocol: as §2

S. warneri L 1375 = experiment: as above; assay type: cell-based; conditions: S. warneri L 1375 clinical isolate, Iso-sensitest broth, approximately 10^4 CFU/ml
Protocol: as §2

Row | Compound | ED50 [1] [mg/kg] | MIC (S. aureus ATCC 6538) [µg/mL] | MIC (S. pyogenes C 203) [µg/mL] | MIC (S. faecalis ATCC 7080) [µg/mL] | MIC (P. vulgaris ATCC 881) [µg/mL] | MIC (S. pneumoniae UC 41) [µg/mL] | MIC (S. aureus TOUR) [µg/mL] | MIC [2] [µg/mL] | MIC (E. Coli SKF 12140) [µg/mL] | pKmcs (COOH) [3] | pKmcs (NH2) [3] | MIC [4] [µg/mL] | MIC (S. epidermidis L 1378) [µg/mL] | MIC [5] [µg/mL] | MIC [6] [µg/mL] | MIC (S. hominis L 1070) [µg/mL] | MIC (S. warneri L 1375) [µg/mL]
1 | 42-α-D-mannosyl-56-N-acyl-β-D-glucosaminyl-35,52-didehydro-34-d eoxy-teicoplanin aglycon [Compound I] | 0.35 | 0.5 | 0.06 | 1 | > 128 | 0.06 | 0.5 | 0.25 | > 128 | 5.0 | 6.9 | – | – | – | – | – | –
2 | NC1C(=O)NC2Cc3ccc(c(Cl)c3)Oc3cc4cc(c3O)Oc3ccc(cc3Cl)C=C3NC(=O)C(NC(=O)C4NC(=O)C(NC2=O)c2cc(O)cc(c2)Oc2cc1ccc2O)c1ccc(O)c(c1)-c1c(O)cc(O)cc1C(C(=O)O)NC3=O (single isomer, unassigned) [Compound IV, (36,37-cis-51,52-trans)-34,35-didehydro-34-deoxy-teicoplanin-aglycon] | – | 1 (≈ 0.847 µM) | 4 (≈ 3.39 µM) | 8 (≈ 6.77 µM) | 128 (≈ 108 µM) | 4 (≈ 3.39 µM) | 1 (≈ 0.847 µM) | 0.12 (≈ 0.102 µM) | > 128 | 4.8 | 7.1 | – | – | – | – | – | –
3 | NC1C(=O)NC2Cc3ccc(c(Cl)c3)Oc3cc4cc(c3O)Oc3ccc(cc3Cl)C=C3NC(=O)C(NC(=O)C4NC(=O)C(NC2=O)c2cc(O)cc(c2)Oc2cc1ccc2O)c1ccc(O)c(c1)-c1c(O)cc(O)cc1C(C(=O)O)NC3=O (single isomer, unassigned) [Compound V, (36,37-trans-51,52-trans)-34,35-didehydro-34-deoxy-teicoplanin-aglycon] | – | 2 (≈ 1.69 µM) | 8 (≈ 6.77 µM) | 16 (≈ 13.5 µM) | > 128 | 8 (≈ 6.77 µM) | 4 (≈ 3.39 µM) | 0.4 (≈ 0.339 µM) | > 128 | – | – | – | – | – | – | – | –
4 | NC1C(=O)NC2Cc3ccc(c(Cl)c3)Oc3cc4cc(c3O)Oc3ccc(cc3Cl)CC3=NC(=O)C(NC(=O)C4NC(=O)C(NC2=O)c2cc(O)cc(c2)Oc2cc1ccc2O)c1ccc(O)c(c1)-c1c(O[C@H]2O[C@H](CO)[C@@H](O)[C@H](O)[C@@H]2O)cc(O)cc1C(C(=O)O)NC3=O (stereo partly drawn) [Compound II, 42-α-D-mannosyl-35,52-didehydro-34-deoxy-teicoplanin aglycon] | 5.8 | 0.25 (≈ 0.186 µM) | 2 (≈ 1.49 µM) | 1 (≈ 0.745 µM) | > 128 | 2 (≈ 1.49 µM) | 0.25 (≈ 0.186 µM) | 0.5 (≈ 0.372 µM) | > 128 | 4.8 | 6.9 | – | – | – | – | – | –
5 | NC1C(=O)NC2Cc3ccc(c(Cl)c3)Oc3cc4cc(c3O)Oc3ccc(cc3Cl)CC3=NC(=O)C(NC(=O)C4NC(=O)C(NC2=O)c2cc(O)cc(c2)Oc2cc1ccc2O)c1ccc(O)c(c1)-c1c(O)cc(O)cc1C(C(=O)O)NC3=O (centres unmarked) [Compound III, 35,52-didehydro-34-deoxy-teicoplanin aglycon] | 5 | 0.25 (≈ 0.212 µM) | 1 (≈ 0.847 µM) | 1 (≈ 0.847 µM) | > 128 | 1 (≈ 0.847 µM) | 0.25 (≈ 0.212 µM) | 0.12 (≈ 0.102 µM) | > 128 | – | – | 0.5 (≈ 0.423 µM) | 0.125 (≈ 0.106 µM) | 0.125 (≈ 0.106 µM) | 0.125 (≈ 0.106 µM) | 0.125 (≈ 0.106 µM) | 1 (≈ 0.847 µM)
6 | N[C@H]1C(=O)N[C@@H]2Cc3ccc(c(Cl)c3)Oc3cc4cc(c3O)Oc3ccc(cc3Cl)[C@@H](O)[C@@H]3NC(=O)[C@H](NC(=O)[C@@H]4NC(=O)[C@@H](NC2=O)c2cc(O)cc(c2)Oc2cc1ccc2O)c1ccc(O)c(c1)-c1c(O)cc(O)cc1[C@@H](C(=O)O)NC3=O [deglucoteicoplanin, reference compound] | – | – | – | – | – | – | – | – | – | 4.9 | 6.9 | – | – | – | – | – | –
7 | teicoplanin A2 [reference compound] | – | – | – | – | – | – | – | – | – | 5.0 | 7.1 | – | – | – | – | – | –
8 | teicoplanin [reference compound] | – | – | – | – | – | – | – | – | – | – | – | 4 | 0.5 | 0.25 | 0.125 | 0.25 | 2
